# Laboratory results published in patent publication US12435060B2, “Acylamino bridged heterocyclic compound, and composition and application thereof” (BEIJING SCITECH-MQ PHARMACEUTICALS LIMITED, priority 2019, dated 2025).
# Tested on: HT29 cells
# Experiment: Inhibition of cell necrosis (CCK8 method), induced programmed necrosis of HT29 cells
# Assay type: cell-based
# Conditions: Homo sapiens, HT-29; rescue from necrosis induced by TNF-α 20 ng/mL, AT-406 1 μM, Z-VAD-FMK 20 μM; 16-20 hours; CCK-8, OD 450 nm
# In short: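 HT29 cells in McCOY's 5A with 10% FBS were pre-treated for 30 min with compound (9 fourfold steps, 25000 to 0.38 nM final, 0.25% DMSO). Necrosis was then induced with TNF-α 20 ng/mL, AT-406 1 μM and Z-VAD-FMK 20 μM for 16-20 h. Viability was read by CCK-8 OD450, normalized between uninduced and induced wells, and IC50 was curve-fitted.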
row,SMILES,IC50 [µM]
1,"CCC(O)(CC)CCCOc1ccc(Cl)c(-c2cc(NC(=O)c3nnc(CC4CCCCC4)[nH]3)ncc2F)c1 [Example 416, N-(4-(2-chloro-5-((4-ethyl-4-hydroxyhexyl)oxy)phenyl)-5-fluoropyridin-2-yl)-5-(cyclohexylmethyl)-4H-1,2,4-triazole-3-carboxamide]",≤ 0.1
2,"CC(C)(O)CCCOc1ccc(Cl)c(-c2cc(NC(=O)c3nnc(CC4CCCCC4)[nH]3)ncc2Cl)c1 [Example 412, N-(5-chloro-4-(2-chloro-5-((4-hydroxy-4-methylpentyl)oxy)phenyl)pyridin-2-yl)-5-(cyclohexylmethyl)-4H-1,2,4-triazole-3-carboxamide]",0.1 to 1
3,"CC(C)(O)CCCCOc1ccc(Cl)c(-c2cc(NC(=O)c3nnc(Cc4ccccc4F)[nH]3)ncc2Cl)c1 [Example 420, N-(5-chloro-4-(2-chloro-5-((5-hydroxyl-5-methylhexyl)oxy)phenyl)pyridin-2-yl)-5-(2-fluorobenzyl)-4H-1,2,4-triazole-3-carboxamide]",0.1 to 1
4,"Cn1nccc1-c1ccnc(NC(=O)c2nnc(Cc3ccccc3)[nH]2)c1 [Example 26, 5-benzyl-N-(4-(1-methyl-1H-pyrazol-5-yl)pyridin-2-yl)-4H-1,2,4-triazole-3-carboxamide]",0.1 to 1
5,"COc1ccc(-c2ccnc(NC(=O)c3nnc(Cc4ccccc4)[nH]3)c2)c(C)c1 [Example 10, 5-benzyl-N-(4-(4-methoxy-2-methylphenyl)pyridin-2-yl)-4H-1,2,4-triazole-3-carboxamide]",1 to 10
6,"CCOCCOc1ccc(C(F)(F)F)c(-c2ccnc(NC(=O)c3nnc(Cc4ccccc4)[nH]3)c2)c1 [Example 283, 5-benzyl-N-(4-(5-(2-ethoxyethoxy)-2-(trifluoromethyl)phenyl)pyridin-2-yl)-4H-1,2,4-triazole-3-carboxamide]",≤ 0.1
7,"COc1ccc(OC)c(-c2ccnc(NC(=O)c3nnc(Cc4ccccc4)[nH]3)c2)c1 [Example 18, 5-benzyl-N-(4-(2,5-dimethoxyphenyl)pyridin-2-yl)-4H-1,2,4-triazole-3-carboxamide]",1 to 10
8,"CC(C)Oc1ccc(Cl)c(-c2ccnc(NC(=O)c3nnc(Cc4ccccc4)[nH]3)c2)c1 [Example 111, 5-benzyl-N-(4-(2-chloro-5-isopropoxyphenyl)pyridin-2-yl)-4H-1,2,4-triazole-3-carboxamide]",≤ 0.1
9,"Cc1ccc(OCCCC(C)(C)O)cc1-c1ccnc(NC(=O)c2nnc(Cc3ccccn3)[nH]2)c1 [Example 219, N-(4-(5-((4-hydroxy-4-methylpentyl)oxy)-2-methylphenyl)pyridin-2-yl)-5-(pyridin-2-ylmethyl)-4H-1,2,4-triazole-3-carboxamide]",≤ 0.1
10,"Cc1ccc(OCCCC(N)=O)cc1-c1ccnc(NC(=O)c2nnc(Cc3ccccc3)[nH]2)c1 [Example 157, N-(4-(5-(4-amino-4-oxobutoxy)-2-methylphenyl)pyridin-2-yl)-5-benzyl-4H-1,2,4-triazole-3-carboxamide]",0.1 to 1
11,"CC(C)(O)CCCCOc1ccc(C(F)(F)F)c(-c2ccnc(NC(=O)c3nnc(Cc4ccccc4)[nH]3)c2)c1 [Example 268, 5-benzyl-N-(4-(5-((5-hydroxyl-5-methylhexyl)oxy)-2-(trifluoromethyl)phenyl)pyridin-2-yl)-4H-1,2,4-triazole-3-carboxamide]",≤ 0.1
12,"CC(C)(O)CCCOc1ccc(Cl)c(-c2ccnc(NC(=O)c3nnc(Cc4cc(F)c(F)cc4F)[nH]3)c2)c1 [Example 355, N-(4-(2-chloro-5-((4-hydroxy-4-methylpentyl)oxy)phenyl)pyridin-2-yl)-5-(2,4,5-trifluorobenzyl)-4H-1,2,4-triazole-3-carboxamide]",0.1 to 1
13,"Cc1ccc(OCCC2CCOCC2)cc1-c1cc(NC(=O)c2nnc(CC3CCCCC3)[nH]2)ncc1F [Example 499, N-(5-fluoro-4-(2-methyl-5-(2-(tetrahydro-2H-pyran-4-yl)ethoxy)phenyl)pyridin-2-yl)-5-(cyclohexylmethyl)-4H-1,2,4-triazole-3-carboxamide]",≤ 0.1
14,"O=C(Nc1cc(-c2cc(OCCC3CCOCC3)ccc2F)c(Cl)cn1)c1nnc(Cc2ccccc2F)[nH]1 [Example 333, N-(5-chloro-4-(2-fluoro-5-(2-(tetrahydro-2H-pyran-4-yl)ethoxy)phenyl)pyridin-2-yl)-5-(2-fluorobenzyl)-4H-1,2,4-triazole-3-carboxamide]",0.1 to 1
15,"Cc1ccc(OCC2CCOCC2)cc1-c1ccnc(NC(=O)c2nnc(Cc3ccccc3)[nH]2)c1 [Example 67, 5-benzyl-N-(4-(2-methyl-5-((tetrahydro-2H-pyran-4-yl)methoxy)phenyl)pyridin-2-yl)-4H-1,2,4-triazole-3-carboxamide]",≤ 0.1
16,"CCCCOc1ccc(C)c(-c2ccnc(NC(=O)c3nnc(Cc4ccccc4)[nH]3)c2)c1 [Example 198, 5-benzyl-N-(4-(5-butoxy-2-methylphenyl)pyridin-2-yl)-4H-1,2,4-triazole-3-carboxamide]",0.1 to 1
17,"CC(C)(O)CCCOc1ccc(Cl)c(-c2ccnc(NC(=O)c3nnc(Cc4cc(F)c(F)c(F)c4)[nH]3)c2)c1 [Example 354, N-(4-(2-chloro-5-((4-hydroxy-4-methylpentyl)oxy)phenyl)pyridin-2-yl)-5-(3,4,5-trifluorobenzyl)-4H-1,2,4-triazole-3-carboxamide]",0.1 to 1
18,"COc1ncccc1-c1ccnc(NC(=O)c2nnc(Cc3ccccc3)[nH]2)c1 [Example 21, 5-benzyl-N-(2-methoxy-[3,4′-bipyridin]-2′-yl)-4H-1,2,4-triazole-3-carboxamide]",1 to 10
19,"CCC(O)(CC)CCCOc1ccc(Cl)c(-c2cc(NC(=O)c3nnc(Cc4ccccc4F)[nH]3)ncc2Cl)c1 [Example 417, N-(5-chloro-4-(2-chloro-5-((4-ethyl-4-hydroxyhexyl)oxy)phenyl)pyridin-2-yl)-5-(2-fluorobenzyl)-4H-1,2,4-triazole-3-carboxamide]",0.1 to 1
20,"Cc1ccc(OCCCC(C)(C)O)cc1-c1ccnc(NC(=O)c2nnc(Cc3cccc(Cl)c3)[nH]2)c1 [Example 185, 5-(3-chlorobenzyl)-N-(4-(5-((4-hydroxy-4-methylpentyl)oxy)-2-methylphenyl)pyridin-2-yl)-4H-1,2,4-triazole-3-carboxamide]",≤ 0.1
21,"CCC(O)(CC)CCCOc1ccc(C)c(-c2cc(NC(=O)c3nnc(CC4CCCCC4)[nH]3)ncc2C)c1 [Example 246, 5-(cyclohexylmethyl)-N-(4-(5-((4-ethyl-4-hydroxyhexyl)oxy)-2-methylphenyl)-5-methylpyridin-2-yl)-4H-1,2,4-triazole-3-carboxamide]",0.1 to 1
22,"O=C(Nc1cc(C2CCCC2)ccn1)c1nnc(Cc2ccccc2)[nH]1 [Example 47, 5-benzyl-N-(4-cyclopentylpyridin-2-yl)-4H-1,2,4-triazole-3-carboxamide]",> 10
23,"CC(C)(O)CCCOc1ccc(Cl)c(-c2ccnc(NC(=O)c3nnc([C@@H](O)c4ccccc4)[nH]3)c2)c1 [Example 478, (S)-N-(4-(2-chloro-5-((4-hydroxy-4-methylpentyl)oxy)phenyl)pyridin-2-yl)-5-(hydroxyl(phenyl)methyl)-4H-1,2,4-triazole-3-carboxamide]",0.1 to 1
24,"COCCOc1cnc(C)c(-c2ccnc(NC(=O)c3nnc(Cc4ccccc4)[nH]3)c2)c1 [Example 129, 5-benzyl-N-(5-(2-methoxyethoxy)-2-methyl-[3,4′-bipyridin]-2′-yl)-4H-1,2,4-triazole-3-carboxamide]",0.1 to 1
